Test results as given in patent US10894803B2, “Multi-functionalized polysaccharide compounds and use thereof for targeting the cation-independent mannose 6-phosphate receptor” (NANOMEDSYN, priority 2015, dated 2021).
Like-named read-outs stand apart in the source and are kept apart here.

What was measured:
CI-M6PR = CI-M6PR (Homo sapiens (Human), UniProt P11717); assay: Competitive binding of M6P analogs to biotinylated CI-M6PR on adsorbed pentamannose 6-phosphate (PMP); details: for Relative affinity: relative to M6C-Ethyl-NH2 taken as reference = 1
Chain of CI-M6PR (P11717 41-2491): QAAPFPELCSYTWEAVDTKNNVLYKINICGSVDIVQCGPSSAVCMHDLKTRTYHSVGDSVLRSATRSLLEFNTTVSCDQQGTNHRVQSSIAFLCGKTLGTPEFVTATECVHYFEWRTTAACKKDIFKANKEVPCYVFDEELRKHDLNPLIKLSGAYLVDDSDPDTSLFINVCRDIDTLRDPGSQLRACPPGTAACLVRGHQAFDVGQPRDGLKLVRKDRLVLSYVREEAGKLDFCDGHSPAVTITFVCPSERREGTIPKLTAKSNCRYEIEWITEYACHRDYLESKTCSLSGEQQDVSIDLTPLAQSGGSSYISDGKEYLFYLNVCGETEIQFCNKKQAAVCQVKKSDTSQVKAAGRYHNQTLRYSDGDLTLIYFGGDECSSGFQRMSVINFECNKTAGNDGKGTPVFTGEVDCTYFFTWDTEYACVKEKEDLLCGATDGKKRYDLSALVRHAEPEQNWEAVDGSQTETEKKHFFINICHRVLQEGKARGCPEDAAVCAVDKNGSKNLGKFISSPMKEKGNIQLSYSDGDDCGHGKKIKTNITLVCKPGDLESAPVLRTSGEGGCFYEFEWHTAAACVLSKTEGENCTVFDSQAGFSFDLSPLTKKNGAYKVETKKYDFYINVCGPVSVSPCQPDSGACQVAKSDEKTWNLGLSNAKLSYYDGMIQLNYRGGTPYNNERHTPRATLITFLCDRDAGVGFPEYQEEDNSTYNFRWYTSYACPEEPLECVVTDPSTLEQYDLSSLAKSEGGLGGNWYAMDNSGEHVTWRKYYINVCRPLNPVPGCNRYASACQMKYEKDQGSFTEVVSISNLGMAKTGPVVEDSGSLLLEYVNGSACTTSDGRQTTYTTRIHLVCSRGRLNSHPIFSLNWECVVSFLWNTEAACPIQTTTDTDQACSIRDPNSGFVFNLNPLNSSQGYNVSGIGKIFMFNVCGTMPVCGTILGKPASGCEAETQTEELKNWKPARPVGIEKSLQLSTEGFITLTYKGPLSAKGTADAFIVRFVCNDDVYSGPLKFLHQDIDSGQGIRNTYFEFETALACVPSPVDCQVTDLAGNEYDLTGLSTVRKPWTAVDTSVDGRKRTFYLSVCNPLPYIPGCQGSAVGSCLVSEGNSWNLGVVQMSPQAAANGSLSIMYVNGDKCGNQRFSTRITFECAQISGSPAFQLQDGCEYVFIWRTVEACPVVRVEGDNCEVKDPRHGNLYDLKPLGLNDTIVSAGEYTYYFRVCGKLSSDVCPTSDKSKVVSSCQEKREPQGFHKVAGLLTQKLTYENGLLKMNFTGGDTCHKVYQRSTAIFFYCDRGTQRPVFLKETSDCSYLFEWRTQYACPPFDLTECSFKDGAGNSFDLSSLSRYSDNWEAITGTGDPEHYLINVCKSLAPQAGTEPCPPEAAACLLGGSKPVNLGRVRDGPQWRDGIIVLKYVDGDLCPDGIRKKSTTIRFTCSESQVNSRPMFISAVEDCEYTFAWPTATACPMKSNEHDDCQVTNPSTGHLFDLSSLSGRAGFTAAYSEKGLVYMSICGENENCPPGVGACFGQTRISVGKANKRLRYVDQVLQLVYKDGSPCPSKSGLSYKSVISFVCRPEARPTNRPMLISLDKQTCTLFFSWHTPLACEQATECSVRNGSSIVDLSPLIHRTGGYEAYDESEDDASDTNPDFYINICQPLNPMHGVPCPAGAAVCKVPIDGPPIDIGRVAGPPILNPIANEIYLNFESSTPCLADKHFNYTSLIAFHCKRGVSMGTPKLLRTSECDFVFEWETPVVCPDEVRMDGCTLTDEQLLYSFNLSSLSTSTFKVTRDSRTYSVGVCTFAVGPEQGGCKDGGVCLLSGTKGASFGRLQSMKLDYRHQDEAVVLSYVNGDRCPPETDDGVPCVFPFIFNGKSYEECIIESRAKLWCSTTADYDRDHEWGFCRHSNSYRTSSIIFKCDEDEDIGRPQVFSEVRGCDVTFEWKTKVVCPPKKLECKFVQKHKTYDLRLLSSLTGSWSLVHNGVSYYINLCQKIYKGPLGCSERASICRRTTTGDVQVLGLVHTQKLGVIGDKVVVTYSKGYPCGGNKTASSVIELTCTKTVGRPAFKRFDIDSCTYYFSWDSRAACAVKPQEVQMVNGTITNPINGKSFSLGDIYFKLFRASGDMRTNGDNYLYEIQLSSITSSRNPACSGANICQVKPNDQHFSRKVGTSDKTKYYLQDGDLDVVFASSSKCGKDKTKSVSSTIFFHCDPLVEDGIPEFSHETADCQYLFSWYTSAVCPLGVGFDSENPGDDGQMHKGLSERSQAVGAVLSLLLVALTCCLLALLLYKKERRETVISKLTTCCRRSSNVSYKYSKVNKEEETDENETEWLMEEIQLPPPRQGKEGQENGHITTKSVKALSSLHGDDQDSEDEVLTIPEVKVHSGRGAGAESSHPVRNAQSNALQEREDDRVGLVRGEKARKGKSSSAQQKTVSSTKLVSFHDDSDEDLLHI
Procedure: 96-Well plates (Maxisorp Nunc) are incubated overnight at 4° C. with 200 μl of PMP (pentamannose 6-phosphate) at the concentration of 200 μg·ml^−1, in carbonate buffer (NaHCO3/Na2CO3 at 0.1M, pH 9.6). The following day, the solution containing the residual PMP is discarded and the wells are saturated, for 1 h at ambient temperature, with 360 μl of 1% gelatin (Type A from Porcine Skin) diluted in PBS (1.9 mM NaH2PO4, 8.1 mM Na2PO4 and 154 mM NaCl, pH 7.4). The wells are then rinsed five times with PBS to which 0.2% gelatin has been added. All the washes and also the dilutions are carried out in the solution of PBS to which 0.2% gelatin has been added. The M6P analogs to be tested at the various concentrations (from 10^−2 to 10^−7 M) are pre-incubated in the presence of pre-biotinylated CI-M6PR (M6PRb) ([…]) for 20 min, then 200 μl of the mixture are incubated in the wells for 2 h, at ambient temperature. After three washes, the wells are incubated for 1 h with a streptavidin-peroxidase solution (250 μl per well; 3.10^−8 M). After three more washes, 200 μl of a solution of OPD (o-phenylenediamine, 1 mg·ml^−1 in citrate buffer, pH 5.0, and 1 μl 30% H2O2.ml^−1; Sigma Aldrich) are added. After incubation for 20 min in the dark at ambient temperature, the optical densities are measured at the wavelength of 450 nm.
The conjugate of formula (III) is evaluated for its affinity with CI-M6PR. The binding affinity of rhGAA and of the rhGAA-M6Pn-α(1,2)-Man-Ethyloxyamino conjugate (28) was evaluated by means of a competitive binding technique with CI-M6PR described in example 2 and compared with the affinity of M6P.

[1] = tested on: myoblasts from an adult patient suffering from Pomp disease; assay: Cellular maturation of internalized GAA by Western blot; assay type: cell-based, human; details: 50 nM, 48 h incubation, healthy subject myoblasts = 100%
Procedure: The myoblasts are incubated for 48 h in the presence of 50 nM rhGAA or of the rhGAA-M6Pn-α(1,2)-Man-Ethyloxyamino conjugate (28) (conjugate of formula (III)), then lysed and the proteins are extracted. The cellular maturation of the internalized GAA enzyme in the myoblasts of patients suffering from Pomp disease is studied by the SDS polyacrylamide gel separation technique, followed by immunodetection of the GAA by Western blot with an anti-human GAA antibody (anti-LYAG, Genetex) or an anti-human actin antibody (Invitrogen). […] This experiment is representative among two experiments. The thick arrow in FIG. 4 indicates the intermediate form of GAA. The black arrow indicates the mature form of GAA (60-70 kDa).
The mature form of 60 kDa is quantified by considering the band present in the myoblasts originating from a healthy subject to be 100%. The expression of GAA 60 kDa in the patient myoblasts corresponds to 1% of the GAA of a healthy subject and is not increased in the myoblasts treated with rhGAA. Conversely, the treatment with the rhGAA-M6Pn-α(1,2)-Man-Ethyloxyamino conjugate (28) increases the 60-70 kDa band to 47% of the GAA of a healthy subject. […] This activity is important for an application in the treatment of Pomp disease by enzyme therapy, but can also be applicable to all lysosomal diseases.

[2] = tested on: myoblasts of patients suffering from the adult form of Pomp disease; assay: Internalization: GAA catalytic activity (4-MUG substrate) in cell extracts of treated myoblasts; assay type: cell-based, human; details: 50 nM, 48 h incubation; compared with rhGAA
Procedure: The myoblast-type cells originating from an adult patient suffering from Pomp disease are maintained in primary culture.
The catalytic activity of GAA is measured in the cell extracts using the synthetic substrate 4-methylumbelliferyl-α-D-glucopyranoside (4-MUG). This substrate and the molecular weight standards are obtained from Sigma. The GAA activity in the cell extracts (20 μl) is measured in a reaction volume of 75 μl containing 50 mM citric acid, 115 mM K2HPO4, 110 mM KCl, 10 mM NaCl, pH 5.0, with 6 mM 4-MUG, for 10 min at ambient temperature. The reaction is stopped with 75 μl of 0.1 M Tris HCl, pH 8. The fluorescence is read with an excitation filter at 355 nm and an emission filter at 460 nm in 96-well plates, and compared to a standard curve obtained with 4-methylumbelliferone. The catalytic activity is expressed per mg of protein. Mean±standard deviation.

[3] = inhibition of CI-M6PR binding to adsorbed PMP, Table 1, read-out: IC50
[4] = competitive binding technique of example 2, Example 4 experiments, read-out: 50% inhibitory concentration (IC50), affinity for CI-M6PR

What does the source list for `NCCO[C@H]1OC(CCC(=O)O)[C@@H](O)[C@H](O)C1O` (stereo partly drawn) [M6C-Ethyl-NH2]?
IC50 (CI-M6PR; [3]): 99 µM; Relative affinity (CI-M6PR): 1

With “rhGAA: recombinant human acid alpha-glucosidase produced in CHO cells, approximately 110 000 Da” as the compound, how does the IC50 (CI-M6PR; [4]) read?
The IC50 was 0.3 µM.

And the “affinity for CI-M6PR, times lower than the rhGAA-M6Pn-α(1,2)-Man-Ethyloxyamino conjugate (28)” value (CI-M6PR; ratio of IC50 values)?
The value was 5.5 times.

And the “mature form of GAA (60-70 kDa band), % of the GAA of a healthy subject” value [1]?
The value was “not increased”.

Which results are given for `NCCO[C@H]1O[C@H](CO)[C@@H](O)[C@H](O)[C@@H]1O[C@H]1O[C@H](CCC(=O)O)[C@@H](O)[C@H](O)[C@@H]1O` [Compound 24, aminoethyl 6,7-dideoxy-7-hydroxycarbonyl-α-D-manno-heptopyranosyl-(1→2)-α-D-mannopyranoside]?
IC50 (CI-M6PR; [3]): 17 µM; Relative affinity (CI-M6PR): 5.8

Which results are given for `NCCO[C@H]1OC(CCP(=O)(O)O)[C@@H](O)[C@H](O)C1O` (stereo partly drawn) [M6Pn-Ethyl-NH2]?
IC50 (CI-M6PR; [3]): 29 µM; Relative affinity (CI-M6PR): 3.4

Which IC50 (CI-M6PR; [4]) does the source give for `O=C[C@@H](O)[C@@H](O)[C@H](O)[C@H](O)COP(=O)(O)O` [Compound M6P, mannose 6-phosphate] here?
The IC50 was 30 µM.

For “rhGAA-M6Pn-α(1,2)-Man-Ethyloxyamino (28): rhGAA functionalized on oligosaccharide chains with phosphonate disaccharide analog 28; conjugate of formula (III)”, which “mature form of GAA (60-70 kDa band), % of the GAA of a healthy subject” value [1] is on record?
Its value is 47%.

What about the “cell penetration of GAA measured through catalytic activity on 4-MUG” value [2] of the same compound?
Its value is “significantly increases”.
